For twelve compounds, GI50 and TGI results are on record in PubChem BioAssay (NCI).

The structures appear in SMILES notation. “And” between values parts separate entries of the source, which are not always exact repeats. Equal entries are not always repeated.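 Exposure lasted 48 hours, with cells grown in 96-well plates and compounds tested at five concentrations. At the GI50, growth is halved. TGI is the concentration that stops growth completely.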

For one experiment, the system named is NCI-H23 lung. As to the kind of experiment: NCI anticancer screen, dose series, 48 h.
As for `C=CC(=O)Nc1cccc(Oc2nc(Nc3ccc(N4CCN(C)CC4)cc3)nc3ccsc23)c1`, the GI50 was 4.27 µM and 9.48 µM; the TGI is > 10 µM and 36.4 µM.

The test system of another experiment is NCI-H522 lung. As to the kind of experiment: NCI anticancer screen, dose series, 48 h.
Consider `C[C@@H]1CN(Cc2ccc(F)cc2)[C@@H](C)CN1C(=O)c1cc2c(C(=O)C(=O)N(C)C)cn(C)c2cc1Cl`, for which the GI50 was 15.8 µM and the TGI turned out to be 43.4 µM.
The matching figures for `O=C1c2cccnc2C(=O)c2c1c(C(=O)NCCCN1CCCCC1)c1ccccn21`: 1.08 µM and 3.45 µM.
`COc1ccccc1-c1cc(=O)c2cc(C)cnc2[nH]1` registered a TGI of over 100 µM.
As to `OCC1OC(n2cnc3c(N/N=C\c4ccccn4)ncnc32)C(O)C1O` (configuration not stated), the GI50 was 0.182 µM and the TGI is over 100 µM.
Compound `NNC(=O)CS(=O)(=O)Nc1ncccn1` gave a TGI of over 100 µM.
Regarding `COc1cccc(OC(=O)c2ccc(C(F)(F)F)nc2Nc2cc(Cl)ccc2C)c1`, the GI50 was 10 µM and the TGI amounted to 71.3 µM.
The matching figures for `COc1cc2c(cc1OCCCn1c(-c3ccccn3)nc3ccccc31)N=C[C@@H]1CCCN1C2=O`: 1.76 µM and 6.81 µM.
For `c1cnn2ncc(-c3ccnc(NCCCN4CCOCC4)n3)c2c1`, in that order: 10.6 µM and over 25 µM.
The matching figures for `O=C(Nc1ccc(OCc2nnc(-c3ccc(Cl)cc3)o2)c(F)c1)Nc1ccc(Cl)c(C(F)(F)F)c1`: 2.27 µM and 7.04 µM.
With `O=C1NC(=O)C(N2C(=O)c3ccccc3C2=O)CC1O` (configuration not stated), the GI50 was over 100 µM and the TGI is over 100 µM.
For the compound `COc1ccc2c(c1)N(CCO)C1=C(C(=O)OC1)C2c1cccc(F)c1` (configuration not stated), the GI50 is 0.118 µM and the TGI turned out to be 1.08 µM.
`C=CC(=O)Nc1cccc(Oc2nc(Nc3ccc(N4CCN(C)CC4)cc3)nc3ccsc23)c1`: the GI50 was 0.43 µM and 1.27 µM; the TGI is 2.21 µM and 3.04 µM.

Another experiment deals with NCI/ADR-RES ovarian. As to the kind of experiment: NCI anticancer screen, dose series, 48 h.
Consider `C[C@@H]1CN(Cc2ccc(F)cc2)[C@@H](C)CN1C(=O)c1cc2c(C(=O)C(=O)N(C)C)cn(C)c2cc1Cl`, for which the GI50 is 14.9 µM and the TGI amounted to 52.7 µM.
For `O=C1c2cccnc2C(=O)c2c1c(C(=O)NCCCN1CCCCC1)c1ccccn21`, in that order: 2.08 µM and 7.37 µM.
`COc1ccccc1-c1cc(=O)c2cc(C)cnc2[nH]1`: the TGI was 47.1 µM.
In the case of `OCC1OC(n2cnc3c(N/N=C\c4ccccn4)ncnc32)C(O)C1O` (configuration not stated), the GI50 was 0.185 µM and the TGI was determined as 11.7 µM.
For `NNC(=O)CS(=O)(=O)Nc1ncccn1`, the TGI is over 100 µM.
As to `COc1cccc(OC(=O)c2ccc(C(F)(F)F)nc2Nc2cc(Cl)ccc2C)c1`, the GI50 is 19.6 µM and the TGI was over 100 µM.
For `COc1cc2c(cc1OCCCn1c(-c3ccccn3)nc3ccccc31)N=C[C@@H]1CCCN1C2=O`, in that order: 2.79 µM and 7.31 µM.
The matching figures for `c1cnn2ncc(-c3ccnc(NCCCN4CCOCC4)n3)c2c1`: 6.78 µM and over 25 µM.
For `O=C(Nc1ccc(OCc2nnc(-c3ccc(Cl)cc3)o2)c(F)c1)Nc1ccc(Cl)c(C(F)(F)F)c1`, in that order: 2.59 µM and 11.5 µM.
Take `O=C1NC(=O)C(N2C(=O)c3ccccc3C2=O)CC1O` (configuration not stated): the GI50 was over 100 µM and the TGI was over 100 µM.
For the compound `COc1ccc2c(c1)N(CCO)C1=C(C(=O)OC1)C2c1cccc(F)c1` (configuration not stated), the GI50 was 0.297 µM and the TGI is over 21.4 µM.
Regarding `C=CC(=O)Nc1cccc(Oc2nc(Nc3ccc(N4CCN(C)CC4)cc3)nc3ccsc23)c1`, the GI50 was 2.73 µM and 3.3 µM; the TGI is > 10 µM and 20.1 µM.

The subject of another experiment is OVCAR-8 ovarian. As to the kind of experiment: NCI anticancer screen, dose series, 48 h.
As to `C[C@@H]1CN(Cc2ccc(F)cc2)[C@@H](C)CN1C(=O)c1cc2c(C(=O)C(=O)N(C)C)cn(C)c2cc1Cl`, the GI50 is 17.6 µM and the TGI was determined as 48.8 µM.
Regarding `O=C1c2cccnc2C(=O)c2c1c(C(=O)NCCCN1CCCCC1)c1ccccn21`, the GI50 was 0.75 µM and the TGI turned out to be 5.58 µM.
`COc1ccccc1-c1cc(=O)c2cc(C)cnc2[nH]1`: the TGI is over 100 µM.
Regarding `OCC1OC(n2cnc3c(N/N=C\c4ccccn4)ncnc32)C(O)C1O` (configuration not stated), the GI50 is 0.164 µM and the TGI came to 53.7 µM.
For `NNC(=O)CS(=O)(=O)Nc1ncccn1`, the TGI was over 100 µM.
With `COc1cccc(OC(=O)c2ccc(C(F)(F)F)nc2Nc2cc(Cl)ccc2C)c1`, the GI50 is 24.2 µM and the TGI is over 100 µM.
On to `COc1cc2c(cc1OCCCn1c(-c3ccccn3)nc3ccccc31)N=C[C@@H]1CCCN1C2=O`, for which the GI50 is 0.957 µM.
`c1cnn2ncc(-c3ccnc(NCCCN4CCOCC4)n3)c2c1`: the GI50 was 7.03 µM and the TGI was over 25 µM.
The matching figures for `O=C(Nc1ccc(OCc2nnc(-c3ccc(Cl)cc3)o2)c(F)c1)Nc1ccc(Cl)c(C(F)(F)F)c1`: 2.97 µM and 12.1 µM.
In the case of `O=C1NC(=O)C(N2C(=O)c3ccccc3C2=O)CC1O` (configuration not stated), the GI50 is over 100 µM and the TGI was over 100 µM.
With `COc1ccc2c(c1)N(CCO)C1=C(C(=O)OC1)C2c1cccc(F)c1` (configuration not stated), the GI50 is 1.24 µM and the TGI is over 50 µM.
With `C=CC(=O)Nc1cccc(Oc2nc(Nc3ccc(N4CCN(C)CC4)cc3)nc3ccsc23)c1`, the GI50 was 3.59 µM and 3.63 µM; the TGI is > 10 µM and 11.7 µM.

The test system of a further experiment is RPMI-8226 leukemia. The experiment can be described thus: NCI anticancer screen, dose series, 48 h.
As for `C[C@@H]1CN(Cc2ccc(F)cc2)[C@@H](C)CN1C(=O)c1cc2c(C(=O)C(=O)N(C)C)cn(C)c2cc1Cl`, the GI50 is 16.7 µM and the TGI was found to be 51.9 µM.
As for `O=C1c2cccnc2C(=O)c2c1c(C(=O)NCCCN1CCCCC1)c1ccccn21`, the GI50 was 3.43 µM and the TGI was over 100 µM.
Consider `COc1ccccc1-c1cc(=O)c2cc(C)cnc2[nH]1`, for which the TGI was over 100 µM.
Take `OCC1OC(n2cnc3c(N/N=C\c4ccccn4)ncnc32)C(O)C1O` (configuration not stated): the GI50 was 0.736 µM and the TGI was over 25.3 µM.
The compound `NNC(=O)CS(=O)(=O)Nc1ncccn1` gave a TGI of over 100 µM.
For `COc1cccc(OC(=O)c2ccc(C(F)(F)F)nc2Nc2cc(Cl)ccc2C)c1`, the GI50 is 4.2 µM and the TGI came to 23.2 µM.
The matching figures for `COc1cc2c(cc1OCCCn1c(-c3ccccn3)nc3ccccc31)N=C[C@@H]1CCCN1C2=O`: 8.8 µM and over 20.8 µM.
The matching figures for `c1cnn2ncc(-c3ccnc(NCCCN4CCOCC4)n3)c2c1`: 6.7 µM and over 25 µM.
`O=C(Nc1ccc(OCc2nnc(-c3ccc(Cl)cc3)o2)c(F)c1)Nc1ccc(Cl)c(C(F)(F)F)c1`: the GI50 was 1.82 µM and the TGI was determined as 8.09 µM.
The matching figures for `O=C1NC(=O)C(N2C(=O)c3ccccc3C2=O)CC1O` (configuration not stated): over 100 µM and over 100 µM.
The matching figures for `COc1ccc2c(c1)N(CCO)C1=C(C(=O)OC1)C2c1cccc(F)c1` (configuration not stated): 0.629 µM and over 50 µM.
For `C=CC(=O)Nc1cccc(Oc2nc(Nc3ccc(N4CCN(C)CC4)cc3)nc3ccsc23)c1`, the GI50 is 2.01 µM and 1.96 µM; the TGI is 4.91 µM and 4.62 µM.

The test system of the next experiment is U251 CNS. As to the kind of experiment: NCI anticancer screen, dose series, 48 h.
For `C[C@@H]1CN(Cc2ccc(F)cc2)[C@@H](C)CN1C(=O)c1cc2c(C(=O)C(=O)N(C)C)cn(C)c2cc1Cl`, the GI50 is 17.4 µM and the TGI was 46.1 µM.
For `O=C1c2cccnc2C(=O)c2c1c(C(=O)NCCCN1CCCCC1)c1ccccn21`, in that order: 1.42 µM and 3.21 µM.
With `COc1ccccc1-c1cc(=O)c2cc(C)cnc2[nH]1`, the GI50 was 27.8 µM and the TGI was over 100 µM.
Turning to `OCC1OC(n2cnc3c(N/N=C\c4ccccn4)ncnc32)C(O)C1O` (configuration not stated), the GI50 is 0.4 µM and the TGI is over 100 µM.
With `NNC(=O)CS(=O)(=O)Nc1ncccn1`, the TGI was over 100 µM.
For the compound `COc1cccc(OC(=O)c2ccc(C(F)(F)F)nc2Nc2cc(Cl)ccc2C)c1`, the GI50 is 8.13 µM and the TGI was over 100 µM.
For `COc1cc2c(cc1OCCCn1c(-c3ccccn3)nc3ccccc31)N=C[C@@H]1CCCN1C2=O`, in that order: 2.37 µM and 11.4 µM.
The matching figures for `c1cnn2ncc(-c3ccnc(NCCCN4CCOCC4)n3)c2c1`: 7.18 µM and over 25 µM.
For `O=C(Nc1ccc(OCc2nnc(-c3ccc(Cl)cc3)o2)c(F)c1)Nc1ccc(Cl)c(C(F)(F)F)c1`, in that order: 1.88 µM and 5.03 µM.
Regarding `O=C1NC(=O)C(N2C(=O)c3ccccc3C2=O)CC1O` (configuration not stated), the GI50 is over 100 µM and the TGI was over 100 µM.
For the compound `COc1ccc2c(c1)N(CCO)C1=C(C(=O)OC1)C2c1cccc(F)c1` (configuration not stated), the GI50 was 0.65 µM and the TGI is over 50 µM.
Regarding `C=CC(=O)Nc1cccc(Oc2nc(Nc3ccc(N4CCN(C)CC4)cc3)nc3ccsc23)c1`, the GI50 is 2.89 µM and 2.97 µM; the TGI was > 10 µM and 9.01 µM.
